Laboratory results: PubChem BioAssay AID222 (DTP/NCI, 2004)
“And” between values parts separate entries of the source, which are not always exact repeats. Identical values can stand only once. Toxic doses and inconclusive results are not listed.

Tested on: C57BL/6 mice, intracerebral ependymoblastoma, median survival T/C
Assay: NCI In Vivo Anticancer Drug Screen. Data for tumor model Ependymoblastoma (intracerebral) in C57BL/6 mice
Conditions: endpoint: median survival time, higher = longer survival
Description: The antitumor activity of compounds was measured in mice bearing transplantable tumors. Survival or tumor size were measured and the results are expressed as the measurement made in the treated group (T) divided by the measurement made in the vehicle treated control group (C). The tumor model used in this assay is Ependymoblastoma (intracerebral) in C57BL/6 mice

[1] = dose: 32.0 mg/kg/injection, schedule: Q01DX001 (oral), vehicle: Klucel (hydroxypropylcellulose) (HPC)
[2] = dose: 64.0 mg/kg/injection, schedule: Q01DX001 (oral), vehicle: Klucel (hydroxypropylcellulose) (HPC)
[3] = dose: 128.0 mg/kg/injection, schedule: Q01DX001 (oral), vehicle: Klucel (hydroxypropylcellulose) (HPC)
[4] = dose: 256.0 mg/kg/injection, schedule: Q01DX001 (oral), vehicle: Klucel (hydroxypropylcellulose) (HPC)
[5] = dose: 3.12 mg/kg/injection, schedule: Q01DX005 (ip), vehicle: saline
[6] = dose: 6.25 mg/kg/injection, schedule: Q01DX005 (ip), vehicle: saline
[7] = dose: 25.0 mg/kg/injection, schedule: Q01DX005 (ip), vehicle: saline
[8] = dose: 12.0 mg/kg/injection, schedule: Q01DX005 (ip), vehicle: saline

In the case of `O=C(CCCN1CCC(O)(c2cccc(C(F)(F)F)c2)CC1)c1ccc(F)cc1`, the T/C (dose: 25.0 mg/kg/injection, schedule: Q04DX003 (ip), vehicle: Klucel (hydroxypropylcellulose) (HPC)) is reported as 103 % of control and the T/C (dose: 50.0 mg/kg/injection, schedule: Q04DX003 (ip), vehicle: Klucel (hydroxypropylcellulose) (HPC)) is reported as 97 % of control.
`CC1CCC(NC(=O)N(CCCl)N=O)CC1` (configuration not stated) was tested, and the T/C (dose: 8.0 mg/kg/injection, schedule: Q01DX001 (ip), vehicle: saline with Tween-80) was 99 % of control, the T/C (dose: 8.0 mg/kg/injection, schedule: Q01DX005 (oral), vehicle: Klucel (hydroxypropylcellulose) (HPC)) was 156 % of control and the T/C (dose: 16.0 mg/kg/injection, schedule: Q01DX001 (ip), vehicle: saline with Tween-80) was 114 % of control. For the same compound, the T/C (dose: 16.0 mg/kg/injection, schedule: Q01DX005 (oral), vehicle: Klucel (hydroxypropylcellulose) (HPC)) was 151 % of control, the T/C (dose: 32.0 mg/kg/injection, schedule: Q01DX001 (ip), vehicle: saline with Tween-80) was 109 % of control and the T/C [1] was 97 % of control. For the same compound, the T/C (dose: 64.0 mg/kg/injection, schedule: Q01DX001 (ip), vehicle: saline with Tween-80) was 95 % of control and 109 % of control, the T/C [2] was 102 % of control and the T/C (dose: 128.0 mg/kg/injection, schedule: Q01DX001 (ip), vehicle: saline with Tween-80) was 98 % of control and 102 % of control. The T/C [3] was 102 % of control, the T/C (dose: 256.0 mg/kg/injection, schedule: Q01DX001 (ip), vehicle: saline with Tween-80) was 97 % of control and the T/C [4] was 95 % of control. The T/C (dose: 512.0 mg/kg/injection, schedule: Q01DX001 (ip), vehicle: saline with Tween-80) was 92 % of control and the T/C (dose: 512.0 mg/kg/injection, schedule: Q01DX001 (oral), vehicle: Klucel (hydroxypropylcellulose) (HPC)) was 90 % of control.
For `C1OC1CN1CCN(CC2CO2)CC1` (configuration not stated), the T/C [5] was 101 % of control, the T/C [6] was 97 % of control and the T/C [7] was 98 % of control.
For `Nc1ncnc2nc[nH]c12`, the T/C (dose: 128.0 mg/kg/injection, schedule: Q01DX005 (ip), vehicle: saline with Tween-80) was 92 % of control.
With `COC1C(CO)OC(n2cnc3c(=S)nc(N)[nH]c32)C1O` (configuration not stated) the T/C (dose: 100.0 mg/kg/injection, schedule: Q01DX005 (ip), vehicle: Klucel (hydroxypropylcellulose) (HPC)) was 91 % of control.
In the case of `O=c1cnn(C2OC(CO)C(O)C2O)c(=O)[nH]1` (configuration not stated), the T/C (dose: 250.0 mg/kg/injection, schedule: Q01DX005 (ip), vehicle: saline) is reported as 102 % of control, the T/C (dose: 500.0 mg/kg/injection, schedule: Q01DX005 (ip), vehicle: saline) is reported as 109 % of control and 111 % of control and the T/C (dose: 1000.0 mg/kg/injection, schedule: Q01DX005 (ip), vehicle: saline) is reported as 105 % of control and 109 % of control. For the same compound, the T/C (dose: 2000.0 mg/kg/injection, schedule: Q01DX005 (ip), vehicle: saline) was 115 % of control.
In the case of `C1CN1c1nc(N2CC2)nc(N2CC2)n1`, the T/C (dose: 0.12 mg/kg/injection, schedule: Q01DX005 (ip), vehicle: saline) is reported as 111 % of control and the T/C (dose: 0.25 mg/kg/injection, schedule: Q01DX005 (ip), vehicle: saline) is reported as 124 % of control.
`CNc1nc(N(C)C)nc(N(C)C)n1` was tested, and the T/C [5] was 103 % of control, the T/C [6] was 96 % of control and the T/C (dose: 12.5 mg/kg/injection, schedule: Q01DX005 (ip), vehicle: saline) was 97 % of control. The T/C [7] was 108 % of control, the T/C (dose: 50.0 mg/kg/injection, schedule: Q01DX005 (ip), vehicle: saline) was 100 % of control and the T/C (dose: 100.0 mg/kg/injection, schedule: Q01DX005 (ip), vehicle: saline) was 113 % of control.
In the case of `COc1cc(NS(C)(=O)=O)ccc1Nc1c2ccccc2nc2ccccc12`, the T/C (dose: 1.0 mg/kg/injection, schedule: Q01DX005 (ip), vehicle: Klucel (hydroxypropylcellulose) (HPC)) is reported as 93 % of control and 108 % of control, the T/C (dose: 1.0 mg/kg/injection, schedule: Q01DX005 (ip), vehicle: saline + alcohol) is reported as 93 % of control and 108 % of control and 116 % of control and the T/C (dose: 1.0 mg/kg/injection, schedule: Q01DX005 (ip), vehicle: water) is reported as 89 % of control and 110 % of control. The T/C (dose: 2.0 mg/kg/injection, schedule: Q01DX005 (ip), vehicle: Klucel (hydroxypropylcellulose) (HPC)) was 98 % of control and 104 % of control, the T/C (dose: 2.0 mg/kg/injection, schedule: Q01DX005 (ip), vehicle: saline + alcohol) was 94 % of control and 109 % of control and 112 % of control and the T/C (dose: 2.0 mg/kg/injection, schedule: Q01DX005 (ip), vehicle: water) was 105 % of control and 108 % of control. The T/C (dose: 4.0 mg/kg/injection, schedule: Q01DX005 (ip), vehicle: Klucel (hydroxypropylcellulose) (HPC)) was 112 % of control, the T/C (dose: 4.0 mg/kg/injection, schedule: Q01DX005 (ip), vehicle: saline + alcohol) was 90 % of control and 98 % of control and the T/C (dose: 4.0 mg/kg/injection, schedule: Q01DX005 (ip), vehicle: water) was 103 % of control and 107 % of control. For the same compound, the T/C (dose: 4.0 mg/kg/injection, schedule: Q#A X002 (ip), vehicle: Klucel (hydroxypropylcellulose) (HPC)) was 89 % of control and 105 % of control, the T/C (dose: 8.0 mg/kg/injection, schedule: Q01DX001 (ip), vehicle: Klucel (hydroxypropylcellulose) (HPC)) was 90 % of control and 96 % of control and 106 % of control and the T/C (dose: 8.0 mg/kg/injection, schedule: Q01DX005 (ip), vehicle: Klucel (hydroxypropylcellulose) (HPC)) was 116 % of control. For the same compound, the T/C (dose: 8.0 mg/kg/injection, schedule: Q#A X002 (ip), vehicle: Klucel (hydroxypropylcellulose) (HPC)) was 91 % of control and 92 % of control, the T/C (dose: 16.0 mg/kg/injection, schedule: Q01DX001 (ip), vehicle: Klucel (hydroxypropylcellulose) (HPC)) was 104 % of control (2×) and 107 % of control and the T/C (dose: 16.0 mg/kg/injection, schedule: Q01DX001 (oral), vehicle: Klucel (hydroxypropylcellulose) (HPC)) was 99 % of control and 113 % of control. For the same compound, the T/C (dose: 16.0 mg/kg/injection, schedule: Q#A X002 (ip), vehicle: Klucel (hydroxypropylcellulose) (HPC)) was 90 % of control, the T/C (dose: 32.0 mg/kg/injection, schedule: Q01DX001 (ip), vehicle: Klucel (hydroxypropylcellulose) (HPC)) was 89 % of control and 101 % of control and 107 % of control and the T/C [1] was 108 % of control. For the same compound, the T/C (dose: 32.0 mg/kg/injection, schedule: Q#A X002 (ip), vehicle: Klucel (hydroxypropylcellulose) (HPC)) was 89 % of control and 93 % of control, the T/C (dose: 64.0 mg/kg/injection, schedule: Q01DX001 (ip), vehicle: Klucel (hydroxypropylcellulose) (HPC)) was 91 % of control and the T/C [2] was 94 % of control and 97 % of control. For the same compound, the T/C (dose: 64.0 mg/kg/injection, schedule: Q#A X002 (ip), vehicle: Klucel (hydroxypropylcellulose) (HPC)) was 89 % of control and 91 % of control, the T/C [3] was 90 % of control and 102 % of control and the T/C [4] was 91 % of control.
For `NC(=S)N/N=C/c1ccc(O)cn1`, the T/C [8] was 108 % of control, the T/C (dose: 24.0 mg/kg/injection, schedule: Q01DX005 (ip), vehicle: saline) was 94 % of control and the T/C (dose: 48.0 mg/kg/injection, schedule: Q01DX005 (ip), vehicle: saline) was 101 % of control. For the same compound, the T/C (dose: 96.0 mg/kg/injection, schedule: Q01DX005 (ip), vehicle: saline) was 104 % of control.
In the case of `CC(=O)OC(C1CO1)C(OC(C)=O)C1CO1` (configuration not stated), the T/C (dose: 5.0 mg/kg/injection, schedule: Q01DX005 (ip), vehicle: saline) is reported as 301 % of control, the T/C (dose: 6.0 mg/kg/injection, schedule: Q01DX005 (ip), vehicle: saline) is reported as 365 % of control and the T/C (dose: 7.0 mg/kg/injection, schedule: Q01DX005 (oral), vehicle: saline) is reported as 253 % of control. The T/C (dose: 10.0 mg/kg/injection, schedule: Q01DX005 (ip), vehicle: saline) was 301 % of control, the T/C [8] was 365 % of control and the T/C (dose: 14.0 mg/kg/injection, schedule: Q01DX005 (oral), vehicle: saline) was 365 % of control.
With `CCC1=C[C@H]2CN(CCc3c([nH]c4ccccc34)[C@@](C(=O)OC)(c3cc4c(cc3OC)N(C)[C@H]3[C@@](O)(C(=O)OC)[C@H](OC(C)=O)[C@]5(CC)C=CCN6CC[C@]43[C@@H]65)C2)C1` the T/C (dose: 0.05 mg/kg/injection, schedule: Q01DX005 (ip), vehicle: saline) was 100 % of control, the T/C (dose: 0.1 mg/kg/injection, schedule: Q01DX005 (ip), vehicle: saline) was 108 % of control and the T/C (dose: 0.2 mg/kg/injection, schedule: Q01DX005 (ip), vehicle: saline) was 110 % of control. For the same compound, the T/C (dose: 0.4 mg/kg/injection, schedule: Q01DX005 (ip), vehicle: saline) was 103 % of control, the T/C (dose: 0.8 mg/kg/injection, schedule: Q01DX005 (ip), vehicle: saline) was 102 % of control and the T/C (dose: 1.6 mg/kg/injection, schedule: Q01DX005 (ip), vehicle: saline) was 105 % of control.
`CO[C@H]1C[C@@H]2CC[C@@H](C)[C@@](O)(O2)C(=O)C(=O)N2CCCC[C@H]2C(=O)O[C@H]([C@H](C)C[C@@H]2CC[C@@H](O)[C@H](OC)C2)CC(=O)[C@H](C)C=C(C)[C@@H](O)[C@@H](OC)C(=O)[C@H](C)C[C@H](C)/C=C/C=C/C=C1C` was tested, and the T/C (dose: 3.12 mg/kg/injection, schedule: Q01DX009 (ip), vehicle: saline with Tween-80) was 111 % of control, the T/C (dose: 6.25 mg/kg/injection, schedule: Q01DX009 (ip), vehicle: saline with Tween-80) was 120 % of control and the T/C (dose: 100.0 mg/kg/injection, schedule: Q01DX009 (ip), vehicle: saline with Tween-80) was 157 % of control. The T/C (dose: 200.0 mg/kg/injection, schedule: Q01DX009 (ip), vehicle: saline with Tween-80) was 92 % of control.
